# Reference: patent US11976083B2, “Inhibitors of peptidylarginine deiminases” (Gilead Sciences, Inc., priority 2020, dated 2024)
# Target: T1, human PAD4 (Homo sapiens, UniProt Q9UM07)
# T1 construct: human PAD4 (NM_012387), A2-P663, was PCR amplified; His-SUMO (N, cleaved yes); made in house; host or cells: E. coli BL21(DE3)
# Experiment: In vitro PAD4 BAEE biochemical assay
# Conditions: BAEE substrate 3 mM, 5 nM PAD4, 2 mM calcium chloride; geometric mean of multiple experiments
# Outline: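 Recombinant PAD4 (5 nM final) with 2 mM CaCl2 was preincubated with compound for 30 min at 25 °C in MOPS pH 7.6 buffer with DTT, then reacted with 3 mM BAEE for 2 h at 25 °C. Released ammonia was detected fluorimetrically with o-phthalaldehyde/DTT; IC50 from four-parameter fit, geometric mean of experiments.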
# T1 sequence (Q9UM07 2-663): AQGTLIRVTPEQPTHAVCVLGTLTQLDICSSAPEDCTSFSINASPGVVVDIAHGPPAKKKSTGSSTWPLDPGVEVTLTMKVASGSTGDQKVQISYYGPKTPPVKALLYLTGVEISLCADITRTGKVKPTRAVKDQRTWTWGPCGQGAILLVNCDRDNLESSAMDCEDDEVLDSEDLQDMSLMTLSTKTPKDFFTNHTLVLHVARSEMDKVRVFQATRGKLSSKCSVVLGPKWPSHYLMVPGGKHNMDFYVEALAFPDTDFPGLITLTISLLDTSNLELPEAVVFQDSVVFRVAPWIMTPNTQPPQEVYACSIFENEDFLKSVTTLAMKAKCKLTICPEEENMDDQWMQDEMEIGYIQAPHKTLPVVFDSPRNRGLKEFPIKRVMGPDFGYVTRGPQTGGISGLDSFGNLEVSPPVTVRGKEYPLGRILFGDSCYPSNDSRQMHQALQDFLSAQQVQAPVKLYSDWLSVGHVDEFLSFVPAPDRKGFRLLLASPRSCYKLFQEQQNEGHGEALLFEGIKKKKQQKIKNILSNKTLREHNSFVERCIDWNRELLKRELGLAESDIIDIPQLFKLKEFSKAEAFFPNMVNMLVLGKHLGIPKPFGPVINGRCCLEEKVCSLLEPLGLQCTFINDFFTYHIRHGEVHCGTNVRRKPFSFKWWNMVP
row,Compound,IC50 [nM]
1,"COc1cc(C(=O)N2C[C@H](N)[C@@H]3CC[C@H]2C3)cc2nc(-c3cc4ccc5nc4n3CCCCCc3nc(Cl)ccc3C(=O)NC5(C)C)n(C)c12 [Example 932, 17-[5-[(1~{S},4~{R},5~{R})-4-amino-2-azabicyclo[3.2.1]octane-2-carbonyl]-7-methoxy-1-methyl-benzimidazol-2-yl]-8-chloro-2,2-dimethyl-3,9,16,22-tetrazatetracyclo[14.5.2.0^ {5,10}.0^{19,23}]tricosa-1(21),5(10),6,8,17,19,22-heptaen-4-one]",58
2,"COC[C@@]12C[C@@H]1CCCCCn1c(-c3nc4cc(C(=O)N5CC[C@@H](OC)[C@@H](N)C5)cc(OC)c4n3C)cc3ccc(nc31)[C@@H](C)NC2=O [Example 865, (2~{R},5~{R},7~{S})-14-[5-[(3~{S},4~{R})-3-amino-4-methoxy-piperidine-1-carbonyl]-7-methoxy-1-methyl-benzimidazol-2-yl]-5-(methoxymethyl)-2-methyl-3,13,19-triazatetracyclo[11.5.2.0^ {5,7}.0^{16,20}]icosa-1(19), 14,16(20),17-tetraen-4-one]",230
3,"COCCn1c(-c2cc3ccc4nc3n2CCCCCc2nccnc2C(=O)N[C@@H]4C)nc2cc(C(=O)N3CC[C@@H](OC)[C@@H](N)C3)cc(F)c21 [Example 435, (2~{R})-17-[5-[(3~{S},4~{R})-3-amino-4-methoxy-piperidine-1-carbonyl]-7-fluoro-1-(2-methoxyethyl)benzimidazol-2-yl]-2-methyl-3,6,9,16,22-pentazatetracyclo[14.5.2.0^{5,10}.0^{19, 23}]tricosa-1(22),5(10),6,8,17,19(23),20-heptaen-4-one]",394
4,"C[C@H]1NC(=O)C2C[C@H]2CCCCCn2c(-c3nc4cc(C(=O)N[C@H]5CNCC[C@@H]5F)cc(Cl)c4n3C)cc3ccc1nc32 (some centres unmarked) [Example 507, 7-chloro-~{N}-[(3~ {S},4~{S})-4-fluoro-3-piperidyl]-1-methyl-2-[(2~{R},7~{R})-2-methyl-4-oxo-3,13,19-triazatetracyclo[11.5.2.0^ {5,7}.0^{16,20}]icosa-1 (19),14,16(20),17-tetraen-14-yl]benzimidazole-5-carboxamide]",32
5,"COc1cc(C(=O)N2[C@H]3CC[C@@H]2[C@H](N)C3)cc2nc(-c3cc4ccc5nc4n3C[C@H]3C[C@H]3CC[C@H]3C[C@@H]3C(=O)N[C@@H]5C)n(C)c12 [Example 143, (3~{S),5~{R},8~{S},10~{S},13~{R})-19-[5-[(1~{R},2~{R},4~{S})-2-amino-7-azabicyclo[2.2.1]heptane-7-carbonyl]-7-methoxy-1-methyl-benzimidazol-2-yl]-13-methyl-1,12,21-triazapentacyclo[12.5.2.0^{3,5}.0^{8,10}.0^ {17,20}]henicosa-14(21),15,17(20),18-tetraen-11-one]",158
6,"COc1cc(C(=O)N2CCC[C@@H](N)C2)cc2nc(-c3cc4ccc5nc4n3C[C@H]3C[C@H]3COCC(C)(C)C(=O)N[C@@H]5C)n(C)c12 [Example 310, (3~{S},5~{R},12~{R})-18-[5-[(3~{R})-3-aminopiperidine-1-carbonyl]-7-methoxy-1-methyl-benzimidazol-2-yl]-9,9,12-trimethyl-7-oxa-1,11,20-triazatetracyclo[11.5.2.0^{3,5}.0^{16,19}] icosa-13(20),14,16(19),17-tetraen-10-one]",135
7,"C[C@H]1NC(=O)c2ccc(C(F)F)nc2CCCCCn2c(-c3nc4cc(C(=O)N5C[C@H](N)[C@@H]6CC[C@H]5C6)cc(F)c4n3C3CC3)cc3ccc1nc32 [Example 843, (2~{R})-17-[5-[(1~{S},4~ {R},5~{R})-4-amino-2-azabicyclo[3.2.1]octane-2-carbonyl]-1-cyclopropyl-7-fluoro-benzimidazol-2-yl]-8-(difluoromethyl)-2-methyl-3,9,16,22-tetrazatetracyclo [14.5.2.0^{5,10}.0^{19,23}] tricosa-1(22),5(10),6,8,17, 19(23),20-heptaen-4-one]",18
8,"COc1cc(C(=O)N2CC[C@@H](OC)[C@@H](N)C2)cc2nc(-c3cc4ccc5nc4n3CCCCCc3ccnc(F)c3C(=O)N[C@@H]5C)n(C)c12 [Example 825, (2~{R})-17-[5-[(3~{S},4~ {R})-3-amino-4-methoxy-piperidine-1-carbonyl]-7-methoxy-1-methyl-benzimidazol-2-yl]-6-fluoro-2-methyl-3,7,16,22-tetrazatetracyclo[14.5.2.0^ {5,10}.0^{19,23}]tricosa-1(21),5,7,9,17,19,22-heptaen-4-one]",38

# Continued by falling IC50, values first:
row,IC50 [nM],Compound
1,196,"C[C@H]1NC(=O)C(C)(C)CCCCCCn2c(-c3nc4cc(C(=O)N[C@@H]5CCCNC5)c(F)cc4n3C3CC3)cc3ccc1nc32 [Example 176, 1-cyclopropyl-6-fluoro-~{N}-[(3~{R})-3-piperidyl]-2-[(11~{R})-8,8,11-trimethyl-9-oxo-1,10,19-triazatricyclo[10.5.2.0^{15,18}]nonadeca-12(19),13,15(18),16-tetraen-17-yl]benzimidazole-5-carboxamide]"
2,96,"COc1cc(C(=O)N2CC[C@@H](OC)[C@@H](N)C2)cc2nc(-c3cc4ccc5nc4n3CC(F)(F)CCCC[C@](C)(C(F)(F)F)C(=O)N[C@@H]5C)n(C)c12 [Example 733, (8~{S},11~{R})-17-[5-[(3~ {S},4~{R})-3-amino-4-methoxy-piperidine-1-carbonyl]-7-methoxy-1-methyl-benzimidazol-2-yl]-3,3-difluoro-8,11-dimethyl-8-(trifluoromethyl)-1,10,19-triazatricyclo[10.5.2.0^ {15,18}]nonadeca-12(19),13,15(18),16-tetraen-9-one]"
3,57,"COc1cc(C(=O)N2CCC[C@@H](N)C2)cc2nc(-c3cc4ccc5nc4n3CCCCC[C@H](OC)C(C)(C)C(=O)N[C@@H]5C)n(C)c12 [Example 154, (7~{S},11~{R})-17-[5-[(3~{R})-3-aminopiperidine-1-carbonyl]-7-methoxy-1-methyl-benzimidazol-2-yl]-7-methoxy-8,8,11-trimethyl-1,10,19-triazatricyclo[10.5.2.0^{15,18}]nonadeca-12(19),13,15(18),16-tetraen-9-one]"
4,42,"CO[C@@H]1CCN(C(=O)c2cc(Cl)c3c(c2)nc(-c2cc4ccc5nc4n2CC(F)(F)CCC[C@@H]2C[C@H]2C(=O)N[C@@H]5C)n3C2CC2)C[C@@H]1N [Example 806, (2~{R},5~{R},7~{R})-14-[5-[(3~{S},4~{R})-3-amino-4-methoxy-piperidine-1-carbonyl]-7-chloro-1-cyclopropyl-benzimidazol-2-yl]-11,11-difluoro-2-methyl-3,13,19-triazatetracyclo[11.5.2.0^ {5,7}.0^{16,20}] icosa-1(18),14,16,19-tetraen-4-one]"
5,35,"COc1cc(C(=O)N2CC[C@@H](OC)[C@@H](N)C2)cc2nc(-c3cc4ccc5nc4n3CCCCCc3nc4ccsc4cc3C(=O)N[C@@H]5C)n(C)c12 [Example 788, (2~{R})-20-[5-[(3~{S),4~{R})-3-amino-4-methoxy-piperidine-1-carbonyl]-7-methoxy-1-methyl-benzimidazol-2-yl]-2-methyl-8-thia-3,12,19,25-tetrazapentacyclo[17.5.2.0^ {5,13).0^{7,11}.0^{22,26}] hexacosa-1(24),5(13), 6,9,11,20,22,25-octaen-4-one]"
6,34,"COc1cc(C(=O)N2C[C@H](N)[C@@H]3CC[C@H]2C3)cc2nc(-c3cc4ccc5nc4n3CCCCCC[C@](F)(c3ccccn3)C(=O)N[C@@H]5C)n(C3CC3)c12 (single isomer, unassigned) [Example 945, (8˜{S},11˜{R})-17-[5-[(1˜{S},4˜{R},5˜{R})-4-amino-2-azabicyclo[3.2.1]octane-2-carbonyl]-1-cyclopropyl-7-methoxy-benzimidazol-2-yl]-8-fluoro-11-methyl-8-(2-pyridyl)-1,10,19-triazatricyclo[10.5.2.0^{15,18}]nonadeca-12(19),13,15(18),16-tetraen-9-one]"
7,26,"(2~{R})-17-[5-[(1~{S},4~{R}, 5~{R})-4-amino-2-azabicyclo [3.2.1]octane-2-carbonyl]- 7-(difluoromethoxy)-1-methyl- benzimidazol-2-yl]-8-chloro- 2-methyl-3,9,16,22- tetrazatetracyclo[14.5.2.0^ {5,10).0^{19,23}]tricosa- 1(22),5(10),6,8,17,19(23),20- heptaen-4-one [Example 762]"
8,16,"C[C@@H]1c2ccc3cc(-c4nc5cc(C(=O)N6C[C@H](N)[C@@H]7CC[C@H]6C7)cc(F)c5n4C4CC4)n(c3n2)CC(F)(F)CCC[C@H]2C[C@H]2C(=O)N1C [Example 683, (2~{R},5~{R},7~{S})-14-[5-[(1~{S},4~{R},5~ {R})-4-amino-2-azabicyclo[3.2.1]octane-2-carbonyl]-1-cyclopropyl-7-fluoro-benzimidazol-2-yl]-11,11-difluoro-2,3-dimethyl-3,13,19-triazatetracyclo [11.5.2.0^{5,7}.0^{16,20}] icosa-1(19),14,16(20), 17-tetraen-4-one]"
9,11,"C[C@H]1NC(=O)[C@@](F)(c2ccccn2)CCCCCCn2c(-c3nc4cc(C(=O)N5C[C@H](N)[C@@H]6CC[C@H]5C6)cc(F)c4n3C3CC3)cc3ccc1nc32 [Example 885, (8~{S},11~{R})-17-[5-[(1~{S},4~{R},5~{R})-4-amino-2-azabicyclo[3.2.1]octane-2-carbonyl]-1-cyclopropyl-7-fluoro-benzimidazol-2-yl]-8-fluoro-11-methyl-8-(2-pyridyl)-1,10,19-triazatricyclo[10.5.2.0^ {15,18}]nonadeca-12(19), 13,15(18),16-tetraen-9-one]"
